Test results: ChEMBL document CHEMBL1629647, “Preclinical evaluation of GS-9160, a novel inhibitor of human immunodeficiency virus type 1 integrase” (Antimicrob Agents Chemother, 2009)

What was measured:
[1] = test system: Human immunodeficiency virus 1; test: Selectivity ratio of EC50 for antiviral activity against HIV1 harboring E138K and Q148K mutation in catalytic core domain of integrase to EC50 for antiviral activity against wild-type HIV1 3B; format: functional
[2] = target: Human immunodeficiency virus type 1 integrase (Human immunodeficiency virus 1, UniProt Q7ZJM1); test: Inhibition of HIV1 integrase strand transfer activity
[3] = test system: Human immunodeficiency virus 1; test: Selectivity ratio of EC50 for antiviral activity against HIV1 harboring E92V and V151A mutation in catalytic core domain of integrase to EC50 for antiviral activity against wild-type HIV1 3B; format: functional
[4] = test system: Human immunodeficiency virus 1; test: Selectivity ratio of EC50 for antiviral activity against HIV1 harboring L74M mutation in catalytic core domain of integrase to EC50 for antiviral activity against wild-type HIV1 3B; format: functional
[5] = test system: Human immunodeficiency virus 1; test: Antiviral activity against HIV1 infected in SupT1 cells assessed as accumulation of late RT products after 12 hrs; format: functional, organism-based; settings: Human immunodeficiency virus 1, SUP-T1, 12 h
[6] = test system: Human immunodeficiency virus 1; test: Selectivity ratio of EC50 for antiviral activity against APV-resistant HIV1 selected after 2 passages to EC50 for antiviral activity against wild-type HIV1 3B; format: functional
[7] = test system: Human immunodeficiency virus 1; test: Selectivity ratio of EC50 for antiviral activity against HIV1 harboring E138K mutation in catalytic core domain of integrase to EC50 for antiviral activity against wild-type HIV1 3B; format: functional
[8] = test system: Human immunodeficiency virus 1; test: Selectivity ratio of EC50 for antiviral activity against GS-9160-resistant HIV1 selected after 5 passages to EC50 for antiviral activity against wild-type HIV1 3B; format: functional
[9] = test system: Human immunodeficiency virus 1; test: Selectivity ratio of EC50 for antiviral activity against HIV1 harboring N155H mutation in catalytic core domain of integrase to EC50 for antiviral activity against wild-type HIV1 3B; format: functional
[10] = test system: Human immunodeficiency virus 1; test: Selectivity ratio of EC50 for antiviral activity against NRTI-resistant HIV1 harboring RT-6TAMs mutant gene to EC50 for antiviral activity against wild-type HIV1 3B; format: functional
[11] = Cytotoxicity against human T lymphocyte cells uninfected by XTT method in presence of 10% FBS
[12] = test system: Human immunodeficiency virus 1; test: Antiviral activity against 0.01 MOI HIV1 3B infected in human MT-2 cells by two fold dilution method in presence of 100% human serum; format: functional, organism-based; settings: Human immunodeficiency virus 1, 3B, MT2
[13] = test system: Human immunodeficiency virus 1; test: Antiviral activity against 0.04 MOI HIV1 3B infected in human MT-2 cells by […] dilution method in presence of 100% human serum; settings: Human immunodeficiency virus 1, 3B, MT2
[14] = test system: Human immunodeficiency virus 1; test: Antiviral activity against 0.001 MOI HIV1 BAL infected in human T lymphocyte cells by p24 antigen ELISA in presence of 10% FBS; format: functional, organism-based; settings: Human immunodeficiency virus 1, BAL
[15] = test system: Human immunodeficiency virus 1; test: Selectivity ratio of EC50 for antiviral activity against HIV1 harboring E92V, G140S and V151A mutation in catalytic core domain of integrase to EC50 for antiviral activity against wild-type HIV1 3B; format: functional
[16] = test system: Human immunodeficiency virus 1; test: Selectivity ratio of EC50 for antiviral activity against GS-9160-resistant HIV1 selected after 9 passages to EC50 for antiviral activity against wild-type HIV1 3B; format: functional
[17] = test system: Human immunodeficiency virus 1; test: Antiviral activity against HIV1 3B infected in human MT-2 cells by two fold dilution method in presence of 10% FBS; format: functional, organism-based; settings: Human immunodeficiency virus 1, 3B, MT2
[18] = test system: Human immunodeficiency virus 1; test: Selectivity ratio of EC50 for antiviral activity against HIV1 harboring Q148K mutation in catalytic core domain of integrase to EC50 for antiviral activity against wild-type HIV1 3B; format: functional
[19] = test system: Human immunodeficiency virus 1; test: Selectivity ratio of EC50 for antiviral activity against NNRTI-resistant HIV1 harboring RTK103N mutant gene to EC50 for antiviral activity against wild-type HIV1 3B; format: functional
[20] = test system: Human immunodeficiency virus 1; test: Selectivity ratio of EC50 for antiviral activity against HIV1 harboring V151A mutation in catalytic core domain of integrase to EC50 for antiviral activity against wild-type HIV1 3B; format: functional
[21] = test system: Human immunodeficiency virus 1; test: Selectivity ratio of EC50 for antiviral activity against 3TC-resistant HIV1 selected after 8 passages to EC50 for antiviral activity against wild-type HIV1 3B; format: functional
[22] = test system: Human immunodeficiency virus 1; test: Selectivity ratio of EC50 for antiviral activity against HIV1 harboring T66I mutation in catalytic core domain of integrase to EC50 for antiviral activity against wild-type HIV1 3B; format: functional
[23] = test system: Human immunodeficiency virus 1; test: Selectivity ratio of EC50 for antiviral activity against EFV-resistant HIV1 selected after 3 passages to EC50 for antiviral activity against wild-type HIV1 3B; format: functional
[24] = in vitro; settings: human, MT2 cells
Description: Selectivity index, ratio of CC50 for human MT2 cells to EC50 for HIV1 3B in presence of 10% FBS

[25] = Cytotoxicity against human uninfected MT2 cells by three fold dilution method in presence of 10% FBS
[26] = test system: Human immunodeficiency virus 1; test: Antiviral activity against 0.02 MOI HIV1 3B infected in human MT-2 cells by two fold dilution method in presence of 100% human serum; format: functional, organism-based; settings: Human immunodeficiency virus 1, 3B, MT2
[27] = test system: Human immunodeficiency virus 1; test: Selectivity ratio of EC50 for antiviral activity against NRTI-resistant HIV1 harboring RTK65R mutant gene to EC50 for antiviral activity against wild-type HIV1 3B; format: functional
[28] = Cytotoxicity against human SupT1 cells infected with HIV1 3B; format: cell-based, SUP-T1; settings: SupT1 cells infected with HIV-1 3B
[29] = test system: Human immunodeficiency virus 1; test: Selectivity ratio of EC50 for antiviral activity against HIV1 harboring G140S mutation in catalytic core domain of integrase to EC50 for antiviral activity against wild-type HIV1 3B; format: functional
[30] = test system: Human immunodeficiency virus 1; test: Selectivity ratio of EC50 for antiviral activity against NRTI-resistant HIV1 harboring RTM184V mutant gene to EC50 for antiviral activity against wild-type HIV1 3B; format: functional
[31] = test system: Human immunodeficiency virus 1; test: Selectivity ratio of EC50 for antiviral activity against GS-9160-resistant HIV1 selected after 6 passages to EC50 for antiviral activity against wild-type HIV1 3B; format: functional
[32] = test system: Human immunodeficiency virus 1; test: Selectivity ratio of EC50 for antiviral activity against 3TC-resistant HIV1 selected after 4 passages to EC50 for antiviral activity against wild-type HIV1 3B; format: functional
[33] = test system: Human immunodeficiency virus 1; test: Selectivity ratio of EC50 for antiviral activity against PI-resistant HIV1 harboring […], V82A and L90M mutant gene to EC50 for antiviral activity against wild-type HIV1 3B; format: functional
[34] = test system: Human immunodeficiency virus 1; test: Antiviral activity against HIV1 3B infected in SupT1 cells assessed as fold increase in viral 2-LTR circles accumulation after […] postinfection by TaqMan real-time PCR; format: functional, SUP-T1
[35] = test system: Human immunodeficiency virus 1; test: Selectivity ratio of EC50 for antiviral activity against PI-resistant HIV1 harboring […], L90M mutant gene to EC50 for antiviral activity against wild-type HIV1 3B; format: functional
[36] = test system: Human immunodeficiency virus 1; test: Antiviral activity against HIV1 infected in SupT1 cells assessed as accumulation of integrated junction products after 48 hrs by Alu-PCR assay; format: functional, organism-based; settings: Human immunodeficiency virus 1, SUP-T1, 48 h
[37] = test system: Human immunodeficiency virus 1; test: Selectivity ratio of EC50 for antiviral activity against HIV1 harboring N155S mutation in catalytic core domain of integrase to EC50 for antiviral activity against wild-type HIV1 3B; format: functional
[38] = test system: Human immunodeficiency virus 1; test: Selectivity ratio of EC50 for antiviral activity against NNRTI-resistant HIV1 harboring RTY181C mutant gene to EC50 for antiviral activity against wild-type HIV1 3B; format: functional

Chain of Human immunodeficiency virus type 1 integrase (Q7ZJM1 whole entry, the tested form may be a part): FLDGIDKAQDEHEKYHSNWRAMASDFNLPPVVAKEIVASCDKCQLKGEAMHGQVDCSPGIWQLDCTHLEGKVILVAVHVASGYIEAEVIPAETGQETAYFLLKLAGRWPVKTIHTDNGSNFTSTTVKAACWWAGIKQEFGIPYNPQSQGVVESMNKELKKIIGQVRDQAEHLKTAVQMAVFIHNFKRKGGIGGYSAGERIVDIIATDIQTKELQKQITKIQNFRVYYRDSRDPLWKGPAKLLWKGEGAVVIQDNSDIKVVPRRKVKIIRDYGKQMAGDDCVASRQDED

Structure (SMILES) | Ratio EC50 [1] | IC50 [2] | Ratio EC50 [3] | Ratio EC50 [4] | EC50 [5] | Ratio EC50 [6] | Ratio EC50 [7] | Ratio EC50 [8] | Ratio EC50 [9] | Ratio EC50 [10] | CC50 [11] | EC50 [12] | EC50 [13] | EC50 [14] | Ratio EC50 [15] | Ratio EC50 [16] | EC50 [17] | Ratio EC50 [18] | Ratio EC50 [19] | Ratio EC50 [20] | further results
O=C(NCc1ccc(F)cc1)c1nc(N2CCCCS2(=O)=O)c2cccnc2c1O | 314 | 44 nM | 111 | 1 | > 1000 nM | 2.5 | 8 | 2.7 | 65 | 1 | 2.1 µM | 41 nM | 200 nM | 3 nM | 371 | 49 | 2 nM | 35 | 1 | 5 | Ratio EC50 [21]: 0.8; Ratio EC50 [22]: 2; Ratio EC50 [23]: 1.2; selectivity ratio [24]: 1500; CC50 [25]: 3 µM; EC50 [26]: 96 nM; Ratio EC50 [27]: 1; CC50 [28]: 1900 nM; Ratio EC50 [29]: 2; Ratio EC50 [30]: 1; Ratio EC50 [31]: 29; Ratio EC50 [32]: 1.3; Ratio EC50 [33]: 1; fold change (FC) [34]: 3; Ratio EC50 [35]: 1; EC50 [36]: 1.3 nM; Ratio EC50 [37]: 21; Ratio EC50 [38]: 1
CN(c1c2c(c(O)c3ncccc13)C(=O)N(Cc1ccc(F)cc1)C2)S(C)(=O)=O | 250 | 28 nM | 104 | 1 | > 1000 nM | 1 | 12 | 4.3 | 50 | 2 | 4 µM | 12 nM | 30 nM | 1.5 nM | 583 | 51 | 2.1 nM | 23 | 1 | 5 | Ratio EC50 [21]: 0.5; Ratio EC50 [22]: 1; Ratio EC50 [23]: 0.9; selectivity ratio [24]: 1900; CC50 [25]: 4 µM; EC50 [26]: 19 nM; Ratio EC50 [27]: 1; CC50 [28]: 600 nM; Ratio EC50 [29]: 2; Ratio EC50 [30]: 1; Ratio EC50 [31]: 26; Ratio EC50 [32]: 0.5; Ratio EC50 [33]: 1; fold change (FC) [34]: 1.9; Ratio EC50 [35]: 1; EC50 [36]: 0.9 nM; Ratio EC50 [37]: 12; Ratio EC50 [38]: 1
